Test results taken from patent publication US20160324992A1, “IDENTIFICATION AND TREATMENT OF VULNERABLE PLAQUES” (OTTAWA HEART INSTITUTE RESEARCH CORPORATION, priority 2015, published 2016).
Like-named read-outs stand apart in the source and are kept apart here. Residues, ends and D or L forms follow the SMILES beside them. *: point of attachment. Cbz = O=C(OCc1ccccc1)*; CH2F = FC*

Tests used:
[1] = test system: FADD-deficient variant of human Jurkat T cells treated with TNF-α; settings: SAR study of Teng et al. 2005, relative to Nec-1; cited from earlier work
[2] = test system: atherosclerotic lesions in ApoE−/− mice; test: Ex vivo autoradiography of aorta, en face and Oil Red O comparison; format: in vivo, mouse; settings: ApoE−/− mice, ˜1 mCi of tracer, 2 hr post injection
Excerpt: Radiochemistry and ex vivo autoradiography study with ApoE^−/− mice. The tracer ^123I-Nec-1 (7-^123I-Nec-1) was synthesized by a Cu(I) catalyzed direct halogen exchange reaction with the precursor 7-Br-Nec-1 and Na^123I. Eight week-old female apolipoprotein E knockout (Apo E^−/−) mice were purchased from Charles River Laboratories and fed either a chow or western diet (TD.10885, Harlan Laboratories) for 2 months (total n=6 mice). 7-^123I-O-Nec-1 (37.0-55.5 MBq) was administrated intravenously into the mice under anesthetic. After 2 hr, the mice were euthanized and perfused with PBS followed by 10% formalin via left ventricle cannulation. Aorta was dissected from heart at the base using a dissecting microscope following removal of surrounding fat and connective tissue. En face specimens were immediately exposed to super resolution phosphor screens in an autoradiography cassette. After overnight exposure at room temperature, the screens were scanned with a Cyclone Phosphor Imager (Perkin Elmer, Downers Grove, Ill.). Images were analyzed using OptiQuant™ 5.0 software. The regions of interest (ROI) were drawn around the lesions on the aortic arch, and the counts in Digital Light Unit (DLU) and surface areas in mm^2 were measured. The DLU was converted to activity in μCi using a set of calibration standards with known activities, which were exposed and scanned on the same screen used for the aorta samples, as previously described (Zhao et al, 2007; Matter et al., 2006). The percentage injected dose (% ID) was calculated from dividing the activity (pCi) of the lesion by the injected activity. Activity density in % ID/m^2 was calculated and normalized by animal body weight to get % ID×kg/m^2. The areas of the lesions and the whole aortic arch in mm^2 were also recorded using the OptiQuant™ 5.0 software, and the percentage of lesion within the area of the aorta vessel wall was calculated.
Ex vivo autoradiography study with ApoE^−/− mice. Eight week-old female apolipoprotein E knockout (Apo E^−/−) mice were purchased from Charles River Laboratories (Charles River, Canada) and fed either a chow or western diet (TD.10885, Harlan Laboratories) for 2 months (n=3 per group). […] 7-^123I-O-Nec-1 (37.0-55.5 MBq) was administrated intravenously into the mice under anesthetic. After 2 hr, the mice were euthanized in a CO2 chamber. Using a Gilson Minipuls 2 peristaltic pump, the mice were perfused with 20 mL phosphate buffered saline (PBS) followed by 10 mL of 10% formalin via left ventricle cannulation. Perfusate was drained from a cut within the right atrium. Aorta was dissected from heart at the base using a dissecting microscope following removal of surrounding fat and connective tissue. For en face experiments aortic tissues were flattened by a longitudinal cut through one side of the aortic wall cutting through the carotids and the innominant artery until the aorta was split forming a Y-shaped structure.
The uptake and distribution of the tracer on aortic tissue was studied using digital autoradiography method. En face specimens were immediately exposed to super resolution phosphor screens in a Fisher Biotech autoradiography cassette. After overnight exposure at room temperature, the screens were scanned with a Cyclone Phosphor Imager (Perkin Elmer, Downers Grove, Ill.). Images were analyzed using OptiQuant™ 5.0 software. The regions of interest (ROI) were drawn around the lesions on the aortic arch, and the counts in Digital Light Unit (DLU) and surface areas in mm^2 were measured. The DLU was converted to activity in pCi using a set of calibration standards with known activities, which were exposed and scanned on the same screen used for the aorta samples. The percentage injected dose (% ID) was calculated from dividing the activity (pCi) of the lesion by the injected activity. Activity density in % ID/m^2 was calculated and normalized by animal body weight to get % ID×kg/m^2. […]

[3] = test system: ApoE−/− mice with established atherosclerosis; test: Atherosclerosis study: time-release pellets in Western diet fed ApoE−/− mice; format: in vivo, mouse
Description: Atherosclerosis Studies. All animal experiments were performed in accordance with the Animal Care and Use Committee, University of Ottawa, Canada. Eight week old Apo E^−/− mice (total n=17 mice) were fed an adjusted calories diet (21% fat; 0.2% cholesterol, Harlan Teklad) for 4 weeks to induce atherosclerotic progression. Mice were then injected with time-release placebo or Nec-1s tablets (2 mg/kg/day), which were synthesized by Innovative Research of America, USA. Mice were euthanized after 6 weeks of treatment, perfused with saline and aortic roots were embedded in OCT medium and frozen. Aortic roots were sectioned (10 μm) and stained with hematoxylin and eosin for lesion area and necrotic core quantification, and a minimum of 10 sections per animal were measured across the length of the entire aortic root. For en face aortic lesion quantifications, aortas were dissected removing all branching vessels down to the femoral bifurcation and then sliced ventrally and images of aortas were digitally captured using ImagePro™. Lesion areas within the entire length of the aorta were quantified using Image J™ and expressed relative to the total aortic surface area. Immunohistochemistry for vascular smooth muscle cells was performed using a primary antibody for a-smooth muscle actin (monoclonal, Sigma) conjugated to alkaline phosphatase and visualized using SigmaFAST Red (Sigma). Statistical significance between the two groups were analyzed using Students' t-test (p<0.05).
Atherosclerosis Studies. All animal experiments were performed in accordance with the Animal Care and Use Committee, University of Ottawa, Canada. Eight week old apoE−/− mice (total n=17 mice) were fed an adjusted calories diet (21% fat; 0.2% cholesterol, Harlan Teklad) for 4 weeks to induce atherosclerotic progression. Mice were then injected with time-release placebo or stable Necrostatin-1 (Nec-1)15 tablets (2 mg/kg/day), which were synthesized by Innovative Research of America, USA. Mice were euthanized after 6 weeks of treatment, perfused with saline and aortic roots were embedded in OCT medium and frozen. Aortic roots were sectioned (10 μm) and stained with hematoxylin and eosin for lesion area and necrotic core quantification, and a minimum of 10 sections per animal were measured across the length of the entire aortic root. For en face aortic lesion quantifications, aortas were dissected removing all branching vessels down to the femoral bifurcation and then sliced ventrally and images of aortas were digitally captured using ImageProTM. Lesion areas within the entire length of the aorta were quantified using Image JTM and expressed relative to the total aortic surface area. Immunohistochemistry to visualize macrophages and smooth muscle cells was performed using primary antibodies to CD68 (rat monoclonal, Serotec) or phosho-MLKL (rabbit polyclonal, Abcam) with a secondary conjugated to biotin and α-smooth muscle actin (monoclonal, Sigma) conjugated to alkaline phosphatase and visualized using DAB or SigmaFAST Red (Sigma), respectively. Image J was used to quantify positive staining area and statistical significance between the two groups were analyzed using Students' t-test (p<0.05)

[4] = test system: bone-marrow-derived macrophages (BMDMs); format: cell-based; settings: BMDMs
Description: (§1) Bone-marrow derived macrophages. Bone-marrow derived macrophages (BMDMs) were isolated from femurs of adult VVT or Rip3^−/− mice and differentiated into macrophages using DMEM supplemented with 10% FBS and 1% penicillin-streptomycin plus either 20% L929 conditioned media or 20 ng/mL mouse M-CSF for 7-10 days. To polarize macrophages to M1 or M2, BMDMs were incubated on day 7 with 1 μg/mL LPS and 100 ng/mL IFNγ or 10 ng/mL IL-4 respectively for 24 h. Damage Associated Molecular Patterns (DAMPs) were obtained by subjecting BMDMs to 3×30 min freeze-thaw cycle or treatment with 100 ng/mL LPS and 50 μM zVAD.fmk for 24 hours, after which the media was collected and added to naïve cells at indicated ratios.
(§2) Cell viability assays. Cell death was determined by measuring lactate dehydrogenase (LDH) release into the media. Briefly, cells were treated with 100 μg/ml oxLDL in the presence or absence of 25 μM zVAD.fmk or 50 μM necrostatin-1 (Nec-1) for 24 hours and media was collected and centrifuged to pellet cell debris. The amount of LDH in media was measured in a kinetic assay by adding PBS containing 0.02% NADH and 0.03% sodium pyruvate and measuring absorbance at 340 nm for 10 minutes at 1 minute intervals. The slope of the curve provides a measure of cell death, which was expressed as fold change relative to control.
as §1, with “Rip3−/−” for “Rip3^−/−”
as §2, with “ug/ml” for “μg/ml”, “uM” for “μM”

**Q.** With `CN1C(=O)C(Cc2c[nH]c3c(Cl)cccc23)NC1=S` (centres unmarked) [7-Cl-Nec-1] as the compound, how does the “necroptosis inhibitory activity (in words)” value [1] read?
**A.** increased activity

**Q.** For `COc1ccc([C@@H]2[C@@H]3CCc4ccc([123I])cc4C3=NN2C(C)=O)cc1` [8-^123I-Nec-3R], which “uptake in atherosclerotic lesions by autoradiography (in words)” value [2] is on record?
**A.** significant lesion uptake

**Q.** Which “necroptosis inhibitory activity (in words)” value [1] does the source give for `O=C1NC(=S)NC1Cc1c[nH]c2ccccc12` (centres unmarked) [Nec-1i] here?
**A.** completely abolished

**Q.** For `CN1C(=O)NC(Cc2c[nH]c3c(Cl)cccc23)C1=O` (centres unmarked) [Nec-1s], which “atherosclerotic lesion area versus placebo (in words)” value ([3]; Western diet 4 weeks then 2 mg/kg/day for 6 weeks) is on record?
**A.** reduced en face lesion areas

**Q.** And the “reduction of lesion necrotic core area compared to placebo” value ([3]; aortic sinus, 2 mg/kg/day, 6 weeks)?
**A.** 62%

**Q.** What does the source list for `COC(=O)C[C@H](NC(=O)[C@H](C)NC(=O)[C@@H](NC(=O)OCc1ccccc1)C(C)C)C(=O)CF` [zVAD.fmk] (Cbz-Val-Ala-Asp(OMe)-CH2F)?
**A.** cell death (LDH release), fold change relative to control ([4]; 100 μg/mL oxLDL + 25 μM zVAD.fmk, 24 h, mean±SEM): 5.7±0.7 fold; effect on cell death in response to oxLDL (in words) ([4]; oxLDL + pan caspase inhibitor zVAD.fmk 25 μM, 24 h): significantly enhanced cell death

**Q.** For `COC(=O)C[C@H](NC(=O)[C@H](C)NC(=O)[C@@H](NC(=O)[C@H](Cc1ccc(O)cc1)NC(=O)OCc1ccccc1)C(C)C)C(=O)CF` [zYVAD.fmk], which “effect on cell death in response to oxLDL (in words)” value ([4]; co-treatment with caspase-1 inhibitor zYVAD.fmk 20 uM) is on record?
**A.** did not reduce or prevent cell death
